Measured values taken from patent US20260317319A1, “NOVEL ERGOLINES AND METHODS OF TREATING MOOD DISORDERS” (Gilgamesh Pharma Inc., priority 2023, published 2026).
Read-outs that look alike come from different tables or passages of the source.

Experiments:
5-HT1A receptor = biological target: T1, 5-HT1A receptor (Homo sapiens, UniProt P08908); assay: cell-based; settings: agonist, Ca2+ flux; for Emax: CHO, read-out: 5-HT1A % Act @ Max Dose
T1 construct: expressed in transfected cells; host or cells: CHO cells, stably transfected
T1 sequence (P08908 1-422): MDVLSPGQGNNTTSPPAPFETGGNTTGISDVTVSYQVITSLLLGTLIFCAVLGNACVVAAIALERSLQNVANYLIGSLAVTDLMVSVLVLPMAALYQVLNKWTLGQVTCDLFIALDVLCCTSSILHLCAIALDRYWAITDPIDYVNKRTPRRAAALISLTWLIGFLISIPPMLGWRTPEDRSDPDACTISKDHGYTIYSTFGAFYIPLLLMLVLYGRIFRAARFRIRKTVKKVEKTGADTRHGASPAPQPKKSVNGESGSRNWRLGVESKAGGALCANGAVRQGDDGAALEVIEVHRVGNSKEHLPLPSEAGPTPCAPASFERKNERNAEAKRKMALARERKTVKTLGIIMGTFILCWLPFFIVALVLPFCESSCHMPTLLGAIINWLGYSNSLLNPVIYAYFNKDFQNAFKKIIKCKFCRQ
Summary of the method: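 Receptor agonism was assessed as intracellular calcium mobilization in stably transfected cells, with CHO cells additionally carrying Gα15 for the 5-HT1A readout. Calcium was monitored with Fluo-4 Direct dye.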

in vitro [1] = assay type: in vitro ADME, human; settings: HLM 0.50 mg/mL, NADPH 1 mM, 1 μM compound, pH 7.4, 37° C., 60 min
C57BL/6 mice = assay: Automated mouse head twitch response (HTR) assay (video tracking); assay type: in vivo; settings: sc; for # HTR/20 min at Most Efficacious Dose: 20 min recording, at each compound's most efficacious dose (35*, 43*, 44*: suppressed below vehicle 14.5, dose is that of least suppression); for # HTR/20 min at Most Efficacious Dose / Peak HTR/min at Most Efficacious Dose: mean; for Most Efficacious Dose for Peak HTR/min: dose giving highest peak HTR/min (35*, 43*, 44*: dose that resulted in the least suppression); for Most Efficacious Dose for # HTR/20 min: dose giving most HTR/20 min (35*, 43*, 44*: dose that resulted in the least suppression); for Peak HTR/min at Most Efficacious Dose: rate over 2-min bins, at each compound's most efficacious dose (35*, 43*, 44*: suppressed below vehicle 1.62, dose is that of least suppression)
Procedure: Disclosed compounds were tested for their ability to induce a head twitch response (HTR) in mice using an automated video tracking procedure, with the results summarized in Table 8 and FIG. 4.
Animals. Adult male C57BL/6 mice aged 8-10 weeks (Jackson Labs, Bar Harbor, ME; body weight 18-25 g) were used in this experiment. Animals were group housed under environmentally controlled temperatures and 12-hour light/dark cycles (lights on between 06:00-18:00 h), with ad libitum food and water. Mice were habituated to the facility for at least 5 days prior to testing. All animal procedures were approved by the local IACUC and conducted in accordance with the NIH Guide for the Care and Use of Laboratory Animals.
Procedure. Mice were administered one dose of the drug and immediately placed into a small open field for behavioral observation. High-speed video of animals' behavior was captured continuously for 20 min. Video recordings were imported into an image processing software, which detects multiple points of interest on each animal's body, including the left and right ear. HTR events were defined as periodic deviations of ear locations from temporally averaged ear locations. Predefined thresholds for magnitude and frequency of location deviations were used to filter HTR events from random head movements. The method was validated by comparing detected events with manual (human) observations and found to have an accuracy >95%. The total number of HTR events counted during the 20-min recording and the rate in HTR/min calculated over 2-min bins were determined for each animal at each dose.
Statistical Analysis. The data points shown are the mean±standard error of the mean (SEM).

5-HT2B receptor [2] = biological target: T2, 5-HT2B receptor (Homo sapiens, UniProt P41595); assay: 5-HT2B receptor radioligand binding ([3H]LSD)
T2 construct: expressed in transfected cells; host or cells: HEK293, stably transfected

5-HT2B receptor [3] = biological target: T2, 5-HT2B receptor; assay: cell-based; assay type: cell-based; settings: Ca2+ flux; for 5-HT2B % Act @ Max Dose / Emax: HEK293, max dose; for Emax: HEK293, agonist, read-out: 5-HT2B % Act @ Max Dose
Summary of the method: (§1)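 FLIPR Tetra fluorescence read-out of calcium flux after compound addition. Receptor-expressing stable lines were used (HEK293 for 2A/2B; CHO with Gα15 for 1A), dye-loaded with Fluo-4 Direct and 2.5 mM final probenecid, 50 min at 37 °C.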

5-HT2C receptor = biological target: T3, 5-HT2C receptor (Homo sapiens, UniProt P28335); assay: cell-based; settings: for Emax: read-out: 5-HT2C % Act @ Max Dose
T3 sequence (P28335 33-458): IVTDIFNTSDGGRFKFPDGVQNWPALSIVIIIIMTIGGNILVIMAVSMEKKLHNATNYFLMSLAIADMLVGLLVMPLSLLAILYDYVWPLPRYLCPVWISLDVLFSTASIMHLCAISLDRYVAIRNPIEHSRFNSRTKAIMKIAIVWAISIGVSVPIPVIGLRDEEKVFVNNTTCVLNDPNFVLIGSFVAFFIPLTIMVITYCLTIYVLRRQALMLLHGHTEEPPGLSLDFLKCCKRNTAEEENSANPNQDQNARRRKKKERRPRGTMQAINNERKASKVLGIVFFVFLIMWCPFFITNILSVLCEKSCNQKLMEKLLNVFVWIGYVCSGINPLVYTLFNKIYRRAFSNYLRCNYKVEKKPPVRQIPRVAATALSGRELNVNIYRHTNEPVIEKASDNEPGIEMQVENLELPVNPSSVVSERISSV

5-HT2A receptor [4] = biological target: T4, 5-HT2A receptor (Homo sapiens, UniProt P28223); assay: cell-based; assay type: cell-based; settings: for 5-HT2A Arrestin % Act @ Max Dose / Emax: max dose; for Emax: read-out: 5-HT2A Arrestin % Act @ Max Dose
Summary of the method: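 Agonist activity expressed as percent of maximal control ligand signal after vehicle subtraction, from chemiluminescence (RLU). Cells carry ProLink-tagged 5-HT2A plus β-arrestin fused to β-gal deletion mutant; ligand-driven arrestin binding restores β-galactosidase activity (PathHunter). Cells pre-incubated at 37° C.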

5-HT1B receptor = biological target: T5, 5-HT1B receptor (Homo sapiens, UniProt P28222); assay: cAMP accumulation functional assay at 5-HT1B; assay type: cell-based; settings: agonist, cAMP accumulation; for Emax: read-out: 5-HT1B % Act @ Max Dose
T5 construct: expressed in transfected cells
Summary of the method: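 Stably transfected human 5-HT1B cells were incubated 60 min at room temperature, after which detection reagent was applied for another 60 min at RT. The read-out was cAMP accumulation, used as a measure of agonist activity.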

5-HT2A receptor [5] = biological target: T4, 5-HT2A receptor; assay: biochemical; assay type: binding; parameters: expressed in transfected cells; host or cells: HEK293, stably transfected
Summary of the method: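 Values reflect [^3H]ketanserin binding competition. Assay conditions were adapted from the literature.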

5-HT2A receptor [6] = biological target: T4, 5-HT2A receptor; assay: cell-based; assay type: cell-based; parameters: expressed in transfected cells; host or cells: HEK293, stably transfected; settings: for Emax: HEK293, agonist, read-out: 5-HT2A % Act @ Max Dose
Summary of the method: as §1

in vitro [7] = assay type: in vitro ADME, mouse; settings: MLM (male CD-1) 0.50 mg/mL, NADPH 1 mM, 1 μM compound, pH 7.4, 37° C., 60 min
Source text: MLM Stability Pooled MLM from male CD-1 mice (BIOIVT M00501) were used.

in vitro [8] = assay type: in vitro ADME, rat; settings: RLM (male Sprague-Dawley) 0.50 mg/mL, NADPH 1 mM, 1 μM compound, pH 7.4, 37° C., 60 min
Source text: RLM Stability Pooled RLM from male Sprague-Dawley rats (Xenotech R1000) were used.

[9] = agonist, Ca2+ flux, Eurofins DiscoverX protocol, max dose
[10] = agonist, beta-arrestin recruitment
[11] = agonist, Ca2+ flux, Eurofins DiscoverX protocol, read-out: 5-HT2C EC50
[12] = agonist, beta-arrestin recruitment, PathHunter, read-out: 5-HT2A Arrestin EC50

T4 sequence (P28223 whole entry, the tested form may be a part): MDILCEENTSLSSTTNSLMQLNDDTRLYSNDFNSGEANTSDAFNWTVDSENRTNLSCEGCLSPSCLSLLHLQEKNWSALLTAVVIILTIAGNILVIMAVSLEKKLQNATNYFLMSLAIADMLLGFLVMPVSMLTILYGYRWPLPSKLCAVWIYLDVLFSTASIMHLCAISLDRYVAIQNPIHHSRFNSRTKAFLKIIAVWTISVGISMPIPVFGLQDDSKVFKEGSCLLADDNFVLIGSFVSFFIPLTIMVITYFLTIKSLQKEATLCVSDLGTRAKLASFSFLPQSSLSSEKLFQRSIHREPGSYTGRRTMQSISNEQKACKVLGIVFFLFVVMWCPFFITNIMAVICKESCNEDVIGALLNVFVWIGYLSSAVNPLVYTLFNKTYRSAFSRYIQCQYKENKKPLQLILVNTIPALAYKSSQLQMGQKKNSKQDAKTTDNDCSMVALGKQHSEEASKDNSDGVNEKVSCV
T2 sequence (P41595 whole entry): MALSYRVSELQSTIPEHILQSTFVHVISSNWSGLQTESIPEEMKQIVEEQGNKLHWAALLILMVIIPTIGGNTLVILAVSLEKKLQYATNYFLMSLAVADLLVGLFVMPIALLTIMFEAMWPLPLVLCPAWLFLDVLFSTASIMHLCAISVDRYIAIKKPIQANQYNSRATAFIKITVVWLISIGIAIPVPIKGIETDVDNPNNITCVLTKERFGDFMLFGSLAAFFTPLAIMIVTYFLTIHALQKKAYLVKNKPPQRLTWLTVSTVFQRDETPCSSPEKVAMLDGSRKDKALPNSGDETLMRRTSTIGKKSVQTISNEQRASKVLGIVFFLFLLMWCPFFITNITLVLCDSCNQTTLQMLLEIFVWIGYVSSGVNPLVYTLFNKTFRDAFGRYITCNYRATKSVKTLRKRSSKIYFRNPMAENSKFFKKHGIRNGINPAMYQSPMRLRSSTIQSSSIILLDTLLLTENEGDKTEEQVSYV
T5 sequence (P28222 whole entry): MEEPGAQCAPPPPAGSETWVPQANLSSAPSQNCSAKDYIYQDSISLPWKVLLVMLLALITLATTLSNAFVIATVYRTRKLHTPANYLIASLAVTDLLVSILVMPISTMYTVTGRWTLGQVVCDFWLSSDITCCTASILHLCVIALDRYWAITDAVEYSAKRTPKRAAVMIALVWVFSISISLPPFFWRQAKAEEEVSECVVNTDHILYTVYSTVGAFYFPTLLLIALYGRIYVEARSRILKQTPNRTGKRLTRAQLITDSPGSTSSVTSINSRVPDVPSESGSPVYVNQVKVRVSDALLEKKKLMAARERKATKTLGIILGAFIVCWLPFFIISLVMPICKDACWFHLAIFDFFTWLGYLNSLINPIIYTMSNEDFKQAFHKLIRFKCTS

| Compound | Intrinsic clearance (Clint) (in vitro [1]) [µL/min/mg] | half-life (t1/2) (in vitro [1]) [h] | # HTR/20 min at Most Efficacious Dose (C57BL/6 mice) [HTR/20 min] | Most Efficacious Dose for Peak HTR/min (C57BL/6 mice) | Most Efficacious Dose for # HTR/20 min (C57BL/6 mice) | Peak HTR/min at Most Efficacious Dose (C57BL/6 mice) [HTR/min] | 5-HT2B % Act @ Max Dose (5-HT2B receptor [3]; agonist) [%] | 5-HT2A Arrestin % Act @ Max Dose (5-HT2A receptor [4]; [10]) [%] | Emax (5-HT1B receptor; max dose) [%] | Emax (5-HT1A receptor; CHO cells with Gα15, max dose) [%] | Ki (5-HT2B receptor [2]; read-out: 5-HT2B Receptor Ki) [nM] | Emax (5-HT2B receptor [3]) [%] | Emax (5-HT2C receptor; [9]) [%] | EC50 (5-HT2C receptor; [11]) [nM] | Emax (5-HT2A receptor [6]; Ca2+ flux, HEK293, max dose) [%] | EC50 (5-HT2A receptor [4]; [12]) [nM] | Emax (5-HT2A receptor [4]; [10]) [%] | also measured |
| --- | --- | --- | --- | --- | --- | --- | --- | --- | --- | --- | --- | --- | --- | --- | --- | --- | --- | --- |
| CCN(CC)C(=O)[C@@H]1C=C2c3cccc4[nH]c(Br)c(c34)C[C@H]2N(C)C1 [Compound 35, (6aR,9R)-5-bromo-N,N-diethyl-7-methyl-4,6,6a,7,8,9-hexahydroindolo[4,3-fg]quinoline-9-carboxamide] | 57.4 | 0.403 | 2.38 | (0.1) mg/kg, sc | (0.1) mg/kg, sc | 0.56 | -0.13 | 30.94 | – | – | – | – | – | – | – | – | – | EC50 (5-HT1A receptor; CHO cells with Gα15): > 100000 nM; 5-HT1A % Act @ Max Dose (5-HT1A receptor; CHO cells with Gα15, max dose): 11.94%; Ki (5-HT2B receptor [2]): 4.96 nM; EC50 (5-HT2C receptor): > 10000 nM; 5-HT2C % Act @ Max Dose (5-HT2C receptor; [9]): 0%; EC50 (5-HT2A receptor [4]): 1.67 nM |
| CCN(CC)C(=O)[C@@H]1C=C2c3cccc4[nH]c(Br)c(c34)C[C@H]2N(CCC(F)(F)F)C1 [Compound 42, (6aR,9R)-5-bromo-N,N-diethyl-7-(3,3,3-trifluoropropyl)-4,6,6a,7,8,9-hexahydroindolo[4,3-fg]quinoline-9-carboxamide] | – | – | – | – | – | – | – | – | 33.1 | 9.13 | 238 | 2.58 | 17.9 | > 10000 | 8.29 | 16 | 49.4 | potency in receptor binding (5-HT2A receptor [5]; radioligand binding, 5-HT2A): potent binding to 5-HT2A; agonist activity at any of the serotonin receptors tested (5-HT2A receptor [6]; functional assays at 5-HT2A, 2B, 2C, 1A, 1B): no agonist activity at any of the receptors tested |
| CC[C@@H](C)NC(=O)[C@@H]1C=C2c3cccc4[nH]c(Br)c(c34)C[C@H]2N(C)C1 [Compound 43, (6aR,9R)-5-bromo-N—((R)-sec-butyl)-7-methyl-4,6,6a,7,8,9-hexahydroindolo[4,3-fg]quinoline-9-carboxamide] | – | – | 6.5 | – | (0.1) mg/kg, sc | 1 | – | – | 83.8 | 6.3 | 9.46 | 1 | 3.13 | > 10000 | 39.3 | 2.23 | 51.8 | – |
| CCC[C@@H](C)NC(=O)[C@@H]1C=C2c3cccc4[nH]c(Br)c(c34)C[C@H]2N(C)C1 [Compound 45, (6aR,9R)-5-bromo-N—((R)-pentan-2-yl)-7-methyl-4,6,6a,7,8,9-hexahydroindolo[4,3-fg]quinoline-9-carboxamide] | – | – | – | – | – | – | – | – | 87.1 | 12.5 | 3.65 | -0.31 | 22.1 | > 10000 | 22.3 | 4.28 | 45.3 | – |
| CCC(CC)NC(=O)[C@@H]1C=C2c3cccc4[nH]c(Br)c(c34)C[C@H]2N(C)C1 [Compound 44, (6aR,9R)-5-bromo-N-(pentan-3-yl)-7-methyl-4,6,6a,7,8,9-hexahydroindolo[4,3-fg]quinoline-9-carboxamide] | – | – | 4.38 | (3.2) mg/kg, sc | (1) mg/kg, sc | 0.93 | – | – | 68.5 | 16.6 | 9.3 | 15.7 | 40 | 4930 | 29.9 | 1.71 | 40.7 | – |
| CCN(CC)C(=O)[C@@H]1C=C2c3cccc4[nH]cc(c34)C[C@H]2NC1 [Compound 83] | <9.6 | >2.42 | 29.625 | (10) mg/kg, sc | (3.2) mg/kg, sc | 3.625 | 69.27 | 88.78 | – | – | – | – | – | – | – | 2.71 | – | EC50 (5-HT1B receptor): 27.4 nM; 5-HT1B % Act @ Max Dose (5-HT1B receptor; max dose): 88.07%; Intrinsic clearance (Clint) (in vitro [7]): 12.6 µL/min/mg; half-life (t1/2) (in vitro [7]): 1.835 h; Ki (5-HT2A receptor [5]; [3H]ketanserin 1 nM, HEK293 stable cell line, 1 h, 25 °C): 5.65 nM; Ki (5-HT2B receptor [2]; [3H]LSD 2 nM, HEK293 stable cell line, 1 h, 25 °C, read-out: 5-HT2B Receptor Ki): 115 nM; EC50 (5-HT2B receptor [3]; agonist, HEK293): 22.5 nM; EC50 (5-HT2A receptor [6]; agonist, Ca2+ flux, HEK293): 1.7 nM; 5-HT2A % Act @ Max Dose (5-HT2A receptor [6]; agonist, Ca2+ flux, HEK293, max dose): 107.11%; Intrinsic clearance (Clint) (in vitro [8]): 15.3 µL/min/mg; half-life (t1/2) (in vitro [8]): 1.51 h |
